Reference: PubChem BioAssay (NCI)
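Each compound was tested at five concentrations against cells in 96-well plates for 48 hours. TGI denotes the concentration required for complete inhibition of growth.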

Legend:
Assay in all cases: NCI anticancer screen, dose series, 48 h
SF-539 CNS = tested on: SF-539 CNS
OVCAR-8 ovarian = tested on: OVCAR-8 ovarian
SW-620 colon = tested on: SW-620 colon
CCRF-CEM leukemia = tested on: CCRF-CEM leukemia
ACHN renal = tested on: ACHN renal
HT29 colon = tested on: HT29 colon
PC-3 prostate = tested on: PC-3 prostate
A498 renal = tested on: A498 renal
KM12 colon = tested on: KM12 colon
SF-295 CNS = tested on: SF-295 CNS
RXF 393 renal = tested on: RXF 393 renal
MDA-N = tested on: MDA-N
HS 578T breast = tested on: HS 578T breast
LOX IMVI melanoma = tested on: LOX IMVI melanoma
IGROV1 ovarian = tested on: IGROV1 ovarian
NCI-H460 lung = tested on: NCI-H460 lung
NCI-H23 lung = tested on: NCI-H23 lung
UO-31 renal = tested on: UO-31 renal
BT-549 breast = tested on: BT-549 breast
SK-OV-3 ovarian = tested on: SK-OV-3 ovarian
HL-60(TB) leukemia = tested on: HL-60(TB) leukemia
K-562 leukemia = tested on: K-562 leukemia
T-47D breast = tested on: T-47D breast
SF-268 CNS = tested on: SF-268 CNS
OVCAR-5 ovarian = tested on: OVCAR-5 ovarian
HCT-116 colon = tested on: HCT-116 colon
MCF7 breast = tested on: MCF7 breast
UACC-62 melanoma = tested on: UACC-62 melanoma
CAKI-1 renal = tested on: CAKI-1 renal
MOLT-4 leukemia = tested on: MOLT-4 leukemia
M14 melanoma = tested on: M14 melanoma
DU-145 prostate = tested on: DU-145 prostate
MDA-MB-231 breast = tested on: MDA-MB-231 breast
RPMI-8226 leukemia = tested on: RPMI-8226 leukemia
A549 NSCLC = tested on: A549 NSCLC
U251 CNS = tested on: U251 CNS
HOP-92 NSCLC = tested on: HOP-92 NSCLC
NCI/ADR-RES ovarian = tested on: NCI/ADR-RES ovarian
SNB-19 CNS = tested on: SNB-19 CNS
SNB-75 CNS = tested on: SNB-75 CNS
SR leukemia = tested on: SR leukemia
UACC-257 melanoma = tested on: UACC-257 melanoma
SK-MEL-2 melanoma = tested on: SK-MEL-2 melanoma
OVCAR-4 ovarian = tested on: OVCAR-4 ovarian
786-0 renal = tested on: 786-0 renal
OVCAR-3 ovarian = tested on: OVCAR-3 ovarian
HCC-2998 colon = tested on: HCC-2998 colon
NCI-H226 lung = tested on: NCI-H226 lung
TK-10 renal = tested on: TK-10 renal
COLO 205 colon = tested on: COLO 205 colon
EKVX NSCLC = tested on: EKVX NSCLC
SK-MEL-28 melanoma = tested on: SK-MEL-28 melanoma
SN12C renal = tested on: SN12C renal
HOP-62 NSCLC = tested on: HOP-62 NSCLC
HCT-15 colon = tested on: HCT-15 colon
MDA-MB-435 = tested on: MDA-MB-435
MALME-3M melanoma = tested on: MALME-3M melanoma
SK-MEL-5 melanoma = tested on: SK-MEL-5 melanoma

NC(N)=NCCCC(NC(=O)OCCCCCn1ccc(N)nc1=O)C(=O)O (configuration not stated)
TGI (SF-539 CNS): > 100 µM
TGI (OVCAR-8 ovarian): > 100 µM
TGI (SW-620 colon): > 100 µM
TGI (CCRF-CEM leukemia): > 100 µM
TGI (ACHN renal): > 100 µM
TGI (HT29 colon): > 100 µM
TGI (PC-3 prostate): > 100 µM
TGI (A498 renal): > 100 µM
TGI (KM12 colon): > 100 µM
TGI (SF-295 CNS): > 100 µM
TGI (RXF 393 renal): > 100 µM
TGI (MDA-N): > 100 µM
TGI (HS 578T breast): > 100 µM
TGI (LOX IMVI melanoma): > 100 µM
TGI (IGROV1 ovarian): > 100 µM
TGI (NCI-H460 lung): > 100 µM
TGI (NCI-H23 lung): > 100 µM
TGI (UO-31 renal): > 100 µM
TGI (BT-549 breast): > 100 µM
TGI (SK-OV-3 ovarian): > 100 µM
TGI (HL-60(TB) leukemia): > 100 µM
TGI (K-562 leukemia): > 100 µM
TGI (T-47D breast): > 100 µM
TGI (SF-268 CNS): > 100 µM
TGI (OVCAR-5 ovarian): > 100 µM
TGI (HCT-116 colon): > 100 µM
TGI (MCF7 breast): > 100 µM
TGI (UACC-62 melanoma): > 100 µM
TGI (CAKI-1 renal): > 100 µM
TGI (MOLT-4 leukemia): > 100 µM
TGI (M14 melanoma): > 100 µM
TGI (DU-145 prostate): > 100 µM
TGI (MDA-MB-231 breast): > 100 µM
TGI (RPMI-8226 leukemia): > 100 µM
TGI (A549 NSCLC): > 100 µM
TGI (U251 CNS): > 100 µM
TGI (HOP-92 NSCLC): > 100 µM
TGI (NCI/ADR-RES ovarian): > 100 µM
TGI (SNB-19 CNS): > 100 µM
TGI (SNB-75 CNS): > 100 µM
TGI (SR leukemia): > 100 µM
TGI (UACC-257 melanoma): > 100 µM
TGI (SK-MEL-2 melanoma): > 100 µM
TGI (OVCAR-4 ovarian): > 100 µM
TGI (786-0 renal): > 100 µM
TGI (OVCAR-3 ovarian): > 100 µM
TGI (HCC-2998 colon): > 100 µM
TGI (NCI-H226 lung): > 100 µM
TGI (TK-10 renal): > 100 µM
TGI (COLO 205 colon): > 100 µM
TGI (EKVX NSCLC): > 100 µM
TGI (SK-MEL-28 melanoma): > 100 µM
TGI (SN12C renal): > 100 µM
TGI (HOP-62 NSCLC): > 100 µM
TGI (HCT-15 colon): > 100 µM
TGI (MDA-MB-435): > 100 µM

Cc1ccc(NN=NCCCCN=NNc2ccc(C)cc2)cc1
TGI (SF-539 CNS): > 100 µM
TGI (OVCAR-8 ovarian): > 100 µM
TGI (SW-620 colon): > 100 µM
TGI (CCRF-CEM leukemia): 98.4 µM
TGI (HT29 colon): > 100 µM
TGI (PC-3 prostate): > 100 µM
TGI (A498 renal): > 100 µM
TGI (SF-295 CNS): > 100 µM
TGI (RXF 393 renal): > 100 µM
TGI (MDA-N): > 100 µM
TGI (HS 578T breast): > 100 µM
TGI (LOX IMVI melanoma): > 100 µM
TGI (IGROV1 ovarian): > 100 µM
TGI (NCI-H460 lung): > 100 µM
TGI (NCI-H23 lung): 81.2 µM
TGI (UO-31 renal): 2.1 µM
TGI (BT-549 breast): > 100 µM
TGI (SK-OV-3 ovarian): > 100 µM
TGI (HL-60(TB) leukemia): 30.3 µM
TGI (MALME-3M melanoma): > 100 µM
TGI (K-562 leukemia): > 100 µM
TGI (T-47D breast): > 100 µM
TGI (SF-268 CNS): > 100 µM
TGI (OVCAR-5 ovarian): > 100 µM
TGI (HCT-116 colon): > 100 µM
TGI (MCF7 breast): > 100 µM
TGI (UACC-62 melanoma): > 100 µM
TGI (CAKI-1 renal): > 100 µM
TGI (MOLT-4 leukemia): > 100 µM
TGI (M14 melanoma): > 100 µM
TGI (DU-145 prostate): > 100 µM
TGI (MDA-MB-231 breast): > 100 µM
TGI (A549 NSCLC): > 100 µM
TGI (U251 CNS): > 100 µM
TGI (HOP-92 NSCLC): > 100 µM
TGI (NCI/ADR-RES ovarian): > 100 µM
TGI (SNB-75 CNS): > 100 µM
TGI (SR leukemia): > 100 µM
TGI (UACC-257 melanoma): > 100 µM
TGI (SK-MEL-2 melanoma): > 100 µM
TGI (OVCAR-4 ovarian): > 100 µM
TGI (OVCAR-3 ovarian): > 100 µM
TGI (HCC-2998 colon): > 100 µM
TGI (NCI-H226 lung): > 100 µM
TGI (TK-10 renal): 17.9 µM
TGI (COLO 205 colon): > 100 µM
TGI (EKVX NSCLC): > 100 µM
TGI (SK-MEL-28 melanoma): > 100 µM
TGI (SN12C renal): > 100 µM
TGI (SK-MEL-5 melanoma): > 100 µM
TGI (HOP-62 NSCLC): > 100 µM
TGI (HCT-15 colon): > 100 µM
TGI (MDA-MB-435): > 100 µM

CCOC(=O)N1CCC2(CC1)CC(=O)N(Nc1ccccc1)C2=O
TGI (SF-539 CNS): > 100 µM
TGI (OVCAR-8 ovarian): > 100 µM
TGI (SW-620 colon): > 100 µM
TGI (CCRF-CEM leukemia): > 100 µM
TGI (ACHN renal): > 100 µM
TGI (HT29 colon): > 100 µM
TGI (PC-3 prostate): > 100 µM
TGI (A498 renal): > 100 µM
TGI (KM12 colon): > 100 µM
TGI (SF-295 CNS): > 100 µM
TGI (RXF 393 renal): > 100 µM
TGI (MDA-N): > 100 µM
TGI (HS 578T breast): > 100 µM
TGI (LOX IMVI melanoma): > 100 µM
TGI (IGROV1 ovarian): > 100 µM
TGI (NCI-H460 lung): > 100 µM
TGI (NCI-H23 lung): > 100 µM
TGI (UO-31 renal): > 100 µM
TGI (BT-549 breast): > 100 µM
TGI (SK-OV-3 ovarian): > 100 µM
TGI (HL-60(TB) leukemia): > 100 µM
TGI (MALME-3M melanoma): > 100 µM
TGI (K-562 leukemia): > 100 µM
TGI (T-47D breast): > 100 µM
TGI (SF-268 CNS): > 100 µM
TGI (OVCAR-5 ovarian): > 100 µM
TGI (HCT-116 colon): > 100 µM
TGI (MCF7 breast): > 100 µM
TGI (UACC-62 melanoma): > 100 µM
TGI (CAKI-1 renal): > 100 µM
TGI (MOLT-4 leukemia): > 100 µM
TGI (M14 melanoma): > 100 µM
TGI (DU-145 prostate): > 100 µM
TGI (MDA-MB-231 breast): > 100 µM
TGI (RPMI-8226 leukemia): > 100 µM
TGI (A549 NSCLC): > 100 µM
TGI (U251 CNS): > 100 µM
TGI (HOP-92 NSCLC): > 100 µM
TGI (NCI/ADR-RES ovarian): > 100 µM
TGI (SNB-19 CNS): > 100 µM
TGI (SNB-75 CNS): > 100 µM
TGI (SR leukemia): > 100 µM
TGI (UACC-257 melanoma): > 100 µM
TGI (SK-MEL-2 melanoma): > 100 µM
TGI (OVCAR-4 ovarian): > 100 µM
TGI (786-0 renal): > 100 µM
TGI (OVCAR-3 ovarian): > 100 µM
TGI (HCC-2998 colon): > 100 µM
TGI (NCI-H226 lung): > 100 µM
TGI (TK-10 renal): > 100 µM
TGI (COLO 205 colon): > 100 µM
TGI (EKVX NSCLC): > 100 µM
TGI (SK-MEL-28 melanoma): > 100 µM
TGI (SN12C renal): > 100 µM
TGI (SK-MEL-5 melanoma): > 100 µM
TGI (HOP-62 NSCLC): > 100 µM
TGI (HCT-15 colon): > 100 µM
TGI (MDA-MB-435): > 100 µM
